In US20220331391A1 (priority 2021, published 2022):
≈ marks a conversion by molar mass, not a printed value. Where “and” joins values, the source holds several entries; their conditions need not be identical. Equal entries are not always repeated. Where two headings read alike, the source gives them in different places.

Legend:
[1] = tested on: Coccidioides posadasii, Silveira strain; conditions: cited from earlier work
[2] = tested on: Coccidioides posadasii, Silveira strain; parameters: species or system mice; conditions: mouse, in vivo
Coccidioides [3] = conditions: mouse, in vivo, 40 mg/kg/day; cited from earlier work
[4] = dog, in vivo, po
Coccidioides [5] = conditions: mouse, in vivo; cited from earlier work
[6] = mouse, in vivo, cited from earlier work; for Cmax in plasma / Tmax in plasma / t1/2 in plasma: po
[7] = mouse, in vivo, po, cited from earlier work
[8] = human, in vivo, po
[9] = mouse, in vivo; cited from earlier work
[10] = in vivo, cited from earlier work

## OC(Cn1cncn1)(Cn1cncn1)c1ccc(F)cc1F [FCZ, Fluconazole, reference compound]
[1]
  MFC: > 100 µg/mL
  MIC: 6.25 µg/mL (≈ 20.4 µM)
[2]
  Brains sterilized in survivors: 20%
  Clear brains of survivors (mice): 1 of 5
  Infected brain and infected other organs, number of mice among survivors: 4
  Infected brain only, number of mice among survivors: 0
  Infected brain, number of mice among survivors: 4
  Infected kidney, number of mice among survivors: 1
  Infected liver, number of mice among survivors: 4
  Infected lung, number of mice among survivors: 4
  Infected spleen, number of mice among survivors: 3
  Kidney CFU in survivors: number of mice with 0 CFU: 5
  Kidney CFU in survivors: number of mice with 1-2 CFU: 0
  Kidney CFU in survivors: number of mice with 10-20 CFU: 0
  Kidney CFU in survivors: number of mice with TNTC (too numerous to count): 0
  Liver CFU in survivors: number of mice with 0 CFU: 1
  Liver CFU in survivors: number of mice with 1-2 CFU: 1
  Liver CFU in survivors: number of mice with 10-20 CFU: 2
  Liver CFU in survivors: number of mice with TNTC (too numerous to count): 1
  Lung CFU in survivors: number of mice with 0 CFU: 1
  Lung CFU in survivors: number of mice with 1-2 CFU: 2
  Lung CFU in survivors: number of mice with 10-20 CFU: 1
  Lung CFU in survivors: number of mice with TNTC (too numerous to count): 1
  No infection any organ, number of mice (complete sterilization): 1
  Semiquantitative culture, CFU in all organs except the spleen: too numerous to count
  Semiquantitative culture, CFU in spleen: no CFU
  Spleen CFU in survivors: number of mice with 0 CFU: 2
  Spleen CFU in survivors: number of mice with 1-2 CFU: 2
  Spleen CFU in survivors: number of mice with 10-20 CFU: 1
  Spleen CFU in survivors: number of mice with TNTC (too numerous to count): 0
  Survival: 50%
  Survivors: 5/10

## C[C@@H]([C@H](N)C(=O)N[C@H](C(=O)O)[C@H]1O[C@@H](n2ccc(=O)[nH]c2=O)[C@H](O)[C@@H]1O)[C@H](O)c1ccc(O)cn1 [nikZ, Nikkomycin Z]
Coccidioides [3]
  Survival: 20%
[4]
  Blood level as % of Cmax by 8 hours: about 5%
  Time to reach Cmax: 1 to 2 h
Coccidioides [5]
  Liver CFU asymptote of dose response curve: about 100 CFU
  Lung fungal count at suppression (dose response curve): below 10 CFU
  Spleen fungal count at suppression (dose response curve): below 10 CFU
  log10 CFU reduction in liver: −1.7 log10 CFU
  log10 CFU reduction in lung: −3.2 log10 CFU
  log10 CFU reduction in spleen: −1.8 log10 CFU
[1]
  MFC: 2.5 µg/mL (≈ 5.05 µM)
  MIC: 2.5 µg/mL (≈ 5.05 µM)
[6]; 100 mg/kg
  Cmax in plasma: 4200 ng/mL
  Tmax in plasma: 2 h
  t1/2 in plasma: 2.2 h
[6]; 300 mg/kg
  Cmax in plasma: 8000 ng/mL
  Tmax in plasma: 1 h
  t1/2 in plasma: 2.3 h
[6]
  Half-life in blood (clearance): 1 to 2 h
[7]; 100 mg/kg
  Cmax in brain: 0.20 mcg/gm
  Tmax in brain: 2 h
  t1/2 in brain: 6.2 h
[7]; 300 mg/kg
  Cmax in brain: 0.26 mcg/gm
  Tmax in brain: 2 h
  t1/2 in brain: 4.4 h
[8]
  Blood level as % of Cmax by 8 hours: about 5%
  Time to reach Cmax: 1 to 2 h
[9]
  Tolerated oral dose: up to 2000 mg/kg/day
[10]; human
  Half-life in blood (clearance): 1 to 2 h
[10]; po
  Dose at which tapering in oral uptake efficiency is observed (breakpoint): about 5.5 mg/kg
mouse, in vivo
  Cmin as % of Cmax: 1%
mouse, in vivo, po
  Blood level as % of Cmax by 8 hours: about 5%
  Time to reach Cmax: 1 to 2 h
mouse, in vivo, po, 50 mg/kg
  AUC: 13,000
  Cmax: 3,750 ng/ml
  T 1/2: 2.61 h
  Tmax: 1
mouse, in vivo, po, 100 mg/kg
  AUC: 20,600
  Cmax: 4,620 ng/ml
  T 1/2: 2.15 h
  Tmax: 1
mouse, in vivo, po, 300 mg/kg
  AUC: 38,200
  Cmax: 7,950 ng/ml
  T 1/2: 2.26 h
  Tmax: 2
Time 0.5
  Mouse plasma nikZ level: 2920 ng/mL
  Mouse plasma nikZ level, % (of Cmax): 77.9%
Time 1
  Mouse plasma nikZ level: 3750 ng/mL
  Mouse plasma nikZ level, % (of Cmax): 100%
Time 2
  Mouse plasma nikZ level: 2320 ng/mL
  Mouse plasma nikZ level, % (of Cmax): 62% and 61.9%
Time 4
  Mouse plasma nikZ level: 1400 ng/mL
  Mouse plasma nikZ level, % (of Cmax): 37% and 37.3%
Time 8
  Mouse plasma nikZ level: 180 ng/mL
  Mouse plasma nikZ level, % (of Cmax): 4.8%
Time 12
  Mouse plasma nikZ level: 35 ng/mL
  Mouse plasma nikZ level, % (of Cmax): 0.9%
Time 24
  Mouse plasma nikZ level: 7.5 ng/mL
  Mouse plasma nikZ level, % (of Cmax): 0.2%
[2]
  Brains sterilized in survivors: 86% and 89% and 80%
  Brains sterilized, mice/10 treated: ≥ 6 mice/10
  Clear brains of survivors (mice): 6 of 7 and 8 of 9
  Infected brain, number of mice among survivors: 1 and 2
  Infected kidney, number of mice among survivors: 0
  Infected spleen, number of mice among survivors: 0
  Kidney CFU in survivors: number of mice with 0 CFU: 7 and 9 and 10
  Kidney CFU in survivors: number of mice with 1-2 CFU: 0
  Kidney CFU in survivors: number of mice with 10-20 CFU: 0
  Kidney CFU in survivors: number of mice with TNTC (too numerous to count): 0
  Liver CFU in survivors: number of mice with 0 CFU: 6 and 9 and 10
  Liver CFU in survivors: number of mice with 10-20 CFU: 0
  Liver CFU in survivors: number of mice with TNTC (too numerous to count): 0
  Lung CFU in survivors: number of mice with 0 CFU: 6 and 9
  Lung CFU in survivors: number of mice with 10-20 CFU: 0
  Lung CFU in survivors: number of mice with TNTC (too numerous to count): 0
  No infection any organ, number of mice (complete sterilization): 6 and 8
  Spleen CFU in survivors: number of mice with 0 CFU: 7 and 9 and 10
  Spleen CFU in survivors: number of mice with 1-2 CFU: 0
  Spleen CFU in survivors: number of mice with 10-20 CFU: 0
  Spleen CFU in survivors: number of mice with TNTC (too numerous to count): 0
  Survivors: 7/10 and 9/10 and 10/10
